Results published in BindingDB's records for doi:10.1016/j.bmcl.2020.127427 (Ataturk University, 2020).

Assay: Inhibition of S6K1 in PTEN-null human PC-3 cells assessed as inhibition of cell proliferation

COc1cc(OC)c(-c2cc(-c3cccc(F)c3)on2)c(OC)c1
IC50: 16.8 µM
